Values belong to the compound of their own block, whether it stands above or below them.
Test system: 186277-243-T-J2-PDC complex spheroids, viability
Assay: Anticancer human tumor 186277-243-T-J2-PDC patient-derived colon adenocarcinoma cell line growth inhibition [RAS]
Conditions: for viability, T/C: stronger effect = lower value
Method in brief: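 Agents were tested in combination matrices in half-log decrements from a top concentration at or near clinical Cmax (10 microM if undetermined). Targets were multi-cell spheroids of tumour lines plus HUVEC and MSC stromal cells.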

[1] = curve of first compound, second compound 0.000949 µM
[2] = curve of first compound, second compound 0.003 µM
[3] = curve of first compound, second compound 0.00949 µM
[4] = curve of first compound, second compound 0.03 µM
[5] = curve of first compound, second compound 0.0949 µM
[6] = curve of first compound, second compound 0.3 µM
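Further: spheroids exposed to compounds for 7 days before viability read.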

Structure (SMILES): CCc1c2c(nc3ccc(O)cc13)-c1cc3c(c(=O)n1C2)COC(=O)[C@]3(O)CC + CCn1c(-c2cccnc2C(C)OC)c2c3cc(ccc31)N1CCOC(CC(NC(=O)C(C(C)C)N(C)C(=O)C3(F)CCN(C(=O)C#CC(C)(C)N(C)C)CC3)C(=O)N3CCCC(N3)C(=O)OCC(C)(C)C2)C1
IC50 [1]: 9.82 nM
IC50 [2]: 13.6 nM
IC50 [3]: 11.1 nM
IC50 [4]: 10.2 nM
IC50 [5]: 7.53 nM
IC50 [6]: 2.85 nM
viability, T/C (second compound 0.000949 µM, first compound 0.000949 µM): 157%
viability, T/C (second compound 0.000949 µM, first compound 0.003 µM): 83.7%
viability, T/C (second compound 0.000949 µM, first compound 0.00949 µM): 52.5%
viability, T/C (second compound 0.000949 µM, first compound 0.03 µM): 35.5%
viability, T/C (second compound 0.000949 µM, first compound 0.0949 µM): 17.3%
viability, T/C (second compound 0.000949 µM, first compound 0.3 µM): 12.1%
viability, T/C (second compound 0.003 µM, first compound 0.000949 µM): 142%
viability, T/C (second compound 0.003 µM, first compound 0.003 µM): 91.9%
viability, T/C (second compound 0.003 µM, first compound 0.00949 µM): 55.8%
viability, T/C (second compound 0.003 µM, first compound 0.03 µM): 37.4%
viability, T/C (second compound 0.003 µM, first compound 0.0949 µM): 18.2%
viability, T/C (second compound 0.003 µM, first compound 0.3 µM): 12.9%
viability, T/C (second compound 0.00949 µM, first compound 0.000949 µM): 142%
viability, T/C (second compound 0.00949 µM, first compound 0.003 µM): 85.4%
viability, T/C (second compound 0.00949 µM, first compound 0.00949 µM): 53.8%
viability, T/C (second compound 0.00949 µM, first compound 0.03 µM): 34.4%
viability, T/C (second compound 0.00949 µM, first compound 0.0949 µM): 15.9%
viability, T/C (second compound 0.00949 µM, first compound 0.3 µM): 12.1%
viability, T/C (second compound 0.03 µM, first compound 0.000949 µM): 139%
viability, T/C (second compound 0.03 µM, first compound 0.003 µM): 80.6%
viability, T/C (second compound 0.03 µM, first compound 0.00949 µM): 54.1%
viability, T/C (second compound 0.03 µM, first compound 0.03 µM): 33%
viability, T/C (second compound 0.03 µM, first compound 0.0949 µM): 17%
viability, T/C (second compound 0.03 µM, first compound 0.3 µM): 12.2%
viability, T/C (second compound 0.0949 µM, first compound 0.000949 µM): 102%
viability, T/C (second compound 0.0949 µM, first compound 0.003 µM): 68.6%
viability, T/C (second compound 0.0949 µM, first compound 0.00949 µM): 48%
viability, T/C (second compound 0.0949 µM, first compound 0.03 µM): 25%
viability, T/C (second compound 0.0949 µM, first compound 0.0949 µM): 15.1%
viability, T/C (second compound 0.0949 µM, first compound 0.3 µM): 10.3%
viability, T/C (second compound 0.3 µM, first compound 0.000949 µM): 69.7%
viability, T/C (second compound 0.3 µM, first compound 0.003 µM): 47.5%
viability, T/C (second compound 0.3 µM, first compound 0.00949 µM): 34%
viability, T/C (second compound 0.3 µM, first compound 0.03 µM): 17.7%
viability, T/C (second compound 0.3 µM, first compound 0.0949 µM): 10.5%
viability, T/C (second compound 0.3 µM, first compound 0.3 µM): 8.49%

Structure (SMILES): Nc1ccn(C2OC(CO)C(O)C2(F)F)c(=O)n1 (stereo unspecified)
viability, T/C (compound 0.00316 µM): 57.2% [middle of 4 runs]
viability, T/C (compound 0.01 µM): 12.7% [middle of 4 runs]
viability, T/C (compound 0.0316 µM): 12% [middle of 4 runs]
viability, T/C (compound 0.1 µM): 12.9% [middle of 4 runs]
viability, T/C (compound 0.316 µM): 10.6% [middle of 4 runs]
viability, T/C (compound 1 µM): 12.1% [middle of 4 runs]
IC50 (curve of compound): 3.81 nM [middle of 4 runs]

Second part, led by results:

IC50 [1]: 96.5 nM
IC50 [2]: 91.5 nM
IC50 [3]: 86.5 nM
IC50 [4]: 90.9 nM
IC50 [5]: 74.2 nM
IC50 [6]: 54 nM
Structure (SMILES): O=C(c1ccc(F)c(F)c1Nc1ccc(I)cc1F)N1CC(O)([C@@H]2CCCCN2)C1 + CCn1c(-c2cccnc2C(C)OC)c2c3cc(ccc31)N1CCOC(CC(NC(=O)C(C(C)C)N(C)C(=O)C3(F)CCN(C(=O)C#CC(C)(C)N(C)C)CC3)C(=O)N3CCCC(N3)C(=O)OCC(C)(C)C2)C1
viability, T/C (second compound 0.000949 µM, first compound 0.00316 µM): 98.9%
viability, T/C (second compound 0.000949 µM, first compound 0.01 µM): 102%
viability, T/C (second compound 0.000949 µM, first compound 0.0316 µM): 99.6%
viability, T/C (second compound 0.000949 µM, first compound 0.1 µM): 48.2%
viability, T/C (second compound 0.000949 µM, first compound 0.316 µM): 9.52%
viability, T/C (second compound 0.000949 µM, first compound 1 µM): 4.41%
viability, T/C (second compound 0.003 µM, first compound 0.00316 µM): 82.9%
viability, T/C (second compound 0.003 µM, first compound 0.01 µM): 94.6%
viability, T/C (second compound 0.003 µM, first compound 0.0316 µM): 87.5%
viability, T/C (second compound 0.003 µM, first compound 0.1 µM): 46.5%
viability, T/C (second compound 0.003 µM, first compound 0.316 µM): 10.4%
viability, T/C (second compound 0.003 µM, first compound 1 µM): 3.64%
viability, T/C (second compound 0.00949 µM, first compound 0.00316 µM): 91.7%
viability, T/C (second compound 0.00949 µM, first compound 0.01 µM): 105%
viability, T/C (second compound 0.00949 µM, first compound 0.0316 µM): 89.4%
viability, T/C (second compound 0.00949 µM, first compound 0.1 µM): 44.2%
viability, T/C (second compound 0.00949 µM, first compound 0.316 µM): 9.08%
viability, T/C (second compound 0.00949 µM, first compound 1 µM): 4.42%
viability, T/C (second compound 0.03 µM, first compound 0.00316 µM): 100%
viability, T/C (second compound 0.03 µM, first compound 0.01 µM): 93.9%
viability, T/C (second compound 0.03 µM, first compound 0.0316 µM): 98.9%
viability, T/C (second compound 0.03 µM, first compound 0.1 µM): 45.7%
viability, T/C (second compound 0.03 µM, first compound 0.316 µM): 9.74%
viability, T/C (second compound 0.03 µM, first compound 1 µM): 4.04%
viability, T/C (second compound 0.0949 µM, first compound 0.00316 µM): 121%
viability, T/C (second compound 0.0949 µM, first compound 0.01 µM): 114%
viability, T/C (second compound 0.0949 µM, first compound 0.0316 µM): 86.9%
viability, T/C (second compound 0.0949 µM, first compound 0.1 µM): 37.3%
viability, T/C (second compound 0.0949 µM, first compound 0.316 µM): 9.15%
viability, T/C (second compound 0.0949 µM, first compound 1 µM): 3.51%
viability, T/C (second compound 0.3 µM, first compound 0.00316 µM): 119%
viability, T/C (second compound 0.3 µM, first compound 0.01 µM): 101%
viability, T/C (second compound 0.3 µM, first compound 0.0316 µM): 72.7%
viability, T/C (second compound 0.3 µM, first compound 0.1 µM): 25.3%
viability, T/C (second compound 0.3 µM, first compound 0.316 µM): 6.5%
viability, T/C (second compound 0.3 µM, first compound 1 µM): 2.7%

IC50 (compound alone, run of 06/10/2024): 160 nM [middle of 8 runs]
Structure (SMILES): C#Cc1c(F)ccc2cc(O)cc(-c3ncc4c(N5CC6CCC(C5)N6)nc(OCC56CCCN5CC(F)C6)nc4c3F)c12 (stereo unspecified)
viability, T/C (compound 0.0316 µM): 70% [middle of 8 runs]
viability, T/C (compound 0.1 µM): 62.6% [middle of 8 runs]
viability, T/C (compound 0.316 µM): 32.4% [middle of 8 runs]
viability, T/C (compound 1 µM): 18.4% [middle of 8 runs]
viability, T/C (compound 3.16 µM): 12.2% [middle of 8 runs]
viability, T/C (compound 10 µM): 10.1% [middle of 8 runs]

IC50 (curve of compound): > 10000 nM
Structure (SMILES): NC1c2ccccc2OC12CCN(c1cnc3c(N4CCCc5ncccc54)n[nH]c3n1)CC2 (stereo unspecified)
viability, T/C (compound 0.316 µM): 99.6% [middle of 4 runs]
viability, T/C (compound 10 µM): 73.3% [middle of 4 runs]

From PubChem BioAssay AID2060908 (Molecular Pharmacology Branch, DTP, NCI, 2025)
